According to ChEMBL document CHEMBL1287665, “Design, synthesis and inhibitory effect of pentapeptidyl chloromethyl ketones on proteinase K” (Bioorg Med Chem, 2010):
Calls of active or inactive are those of the source.

Experiments:
Conditions in all cases: Parengyodontium album
[1] = target: Proteinase K (Engyodontium album) (UniProt P06873); assay: Inhibition of Engyodontium album proteinase K proteolytic activity assessed as concentration required to obtain cycle threshold 26 using TaqMan gene expression Cells-to-CT kit after 60 mins by qRT-PCR analysis
[2] = target: Proteinase K (Engyodontium album) (UniProt P06873); assay: Inhibition of Engyodontium album proteinase K proteolytic activity in human HeLa cell lysate using beta-actin primer/probes of TaqMan gene expression Cells-to-CT kit at 0.10 mM after 60 mins by qRT-PCR analysis; type: cell-free
[3] = target: Proteinase K (Engyodontium album) (UniProt P06873); assay: Inhibition of Engyodontium album proteinase K proteolytic activity assessed as digestion of bovine serum albumin at 0.25 mM after 10 mins using coomassie blue staining by protein gel analysis
[4] = target: Proteinase K (Engyodontium album) (UniProt P06873); assay: Ratio of compound to MeO-Suc-AAAPV-CH2Cl for inhibition of Engyodontium album proteinase K proteolytic activity assessed as concentration required to obtain cycle threshold 26 using TaqMan gene expression Cells-to-CT kit after 60 mins by RT-PCR analysis
[5] = target: Proteinase K (Engyodontium album) (UniProt P06873); assay: Inhibition of Engyodontium album proteinase K proteolytic activity in human HeLa cell lysate using beta-actin primer/probes of TaqMan gene expression Cells-to-CT kit at 0.5 mM after 60 mins by qRT-PCR analysis; type: cell-free
[6] = target: Proteinase K (Engyodontium album) (UniProt P06873); assay: Inhibition of Engyodontium album proteinase K proteolytic activity assessed as digestion of bovine serum albumin at 0.75 mM after 10 mins using coomassie blue staining by protein gel analysis

Chain of Proteinase K (Engyodontium album) (P06873 whole entry): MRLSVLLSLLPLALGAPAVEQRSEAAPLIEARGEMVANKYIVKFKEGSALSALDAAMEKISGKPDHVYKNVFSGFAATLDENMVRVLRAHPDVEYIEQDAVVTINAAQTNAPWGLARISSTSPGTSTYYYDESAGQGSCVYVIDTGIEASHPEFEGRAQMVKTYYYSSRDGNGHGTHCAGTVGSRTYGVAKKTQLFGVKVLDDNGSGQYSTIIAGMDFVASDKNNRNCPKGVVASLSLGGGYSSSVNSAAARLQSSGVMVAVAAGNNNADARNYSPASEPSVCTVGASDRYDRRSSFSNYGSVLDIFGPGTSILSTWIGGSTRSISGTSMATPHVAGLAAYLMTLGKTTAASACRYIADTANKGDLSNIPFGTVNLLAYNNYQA

Structure (SMILES)	Activity [1] [mM]	inhibition [2]	inhibition [3]	Ratio [4]	inhibition [5]	inhibition [6]
COC(=O)CCC(=O)N[C@@H](C)C(=O)N[C@H](C)C(=O)N[C@@H](C)C(=O)N1CCC[C@H]1C(=O)N[C@H](Cc1ccccc1)C(=O)CCl	0.1	Active	Active	7.5		
COC(=O)CCC(=O)N[C@@H](C)C(=O)N[C@H](C)C(=O)N[C@@H](C)C(=O)N1CCC[C@H]1C(=O)N[C@@H](C(=O)CCl)C(C)C					Active	inactive
